From patent US5849888A, “Azoamide compound” (Wako Pure Chemical Industries, Ltd., priority 1996, dated 1998)

Columns and labels:
[1] = in words, cited from earlier work; for solubility in an organic solvent: organic solvent used in solution polymerization of an oily soluble monomer
[2] = Solubility of azoamide compound in 100 g of solvent at 25° C. (Table 1); format: physicochemical; details: for Solubility in ethyl acetate: in 100 g of ethyl acetate; for Solubility in toluene: in 100 g of toluene
Excerpt: *^) Solubility of each azoamide compound in 100 g of the solvent at
A polymerization initiator having solubility of generally 2% or more, preferably 5% or more has high applicability, and it can be found from the above Table 1 that any of the azoamide compounds of the present invention is suitable for a polymerization reaction using an organic solvent.

[3] = Half-life test (thermal decomposition in ethyl benzene, 10-hour half life temperature); format: physicochemical; details: 1% (w/w) solution in ethyl benzene; calculated by Arrhenius equation
Method: Experiment 1. Half-life test
(§1) 1 Percent (w/w) solution of each azoamide compound obtained in Examples 1 to 7 in ethyl benzene is prepared. A concentration of the azoamide compound is measured in a thermostat at pre-determined interval by 1 hour unit and a coefficient of decomposition rate constant at each temperature is obtained and then the temperature for 10 -hour half life is calculated on the basis of the coefficient by Arrhenius equation.

[4] = Polymerization of styrene at 110° C. with azoamide initiator (Experiment 2); details: 4×10^-4 M initiator
Method: (§2) 5 ml of styrene containing a 4×10^-4 M of azoamide compound which is obtained example 1, 3, or 6 were placed in individual glass tubes. After deairing, the tubes were sealed under reduced pressure. Each tube was placed into the thermostat adjusted at 110° C. to carry out the polymerization. The tube was took out from the thermostat after predetermined time, cooled under ice water immediately to stop polymerization. The reaction solution was poured into methanol to deposit and precipitate the obtained polymer. The precipitate was recovered by filtration, and dried at 60° C. under reduced pressure for 8 hours. The weight of the polymer obtained was measured and the conversion was calculated.

[5] = Decomposition rate constant at 110° C. (Table 3); format: physicochemical
Method: as §1, §2

[6] = listed as 2,2'-azobis (N-methyl-2-methyl propionamide)

Structure (SMILES)	Solubility in ethyl acetate [2]	Solubility in toluene [2]	temperature for 10-hour half life [3]	decomposition rate constant [5]	Solubility in ethyl acetate [2, 6]	Solubility in toluene [2, 6]	solubility in water [1]	solubility in an organic solvent [1]	Conversion ([4]; polymerization time 1 h)	Conversion ([4]; polymerization time 2 h)	Conversion ([4]; polymerization time 3 h)	Conversion ([4]; polymerization time 4 h)	Conversion ([4]; polymerization time 6 h)	Conversion ([4]; polymerization time 8 h)
CC(C)(N=NC(C)(C)C(=O)NCO)C(=O)NCO [2,2'-azobis [2-methyl-N-(hydroxymethyl)-propionamide]]	–	–	–	–	–	–	water-soluble	poor soluble	–	–	–	–	–	–
CNC(=O)C(C)(C)N=NC(C)(C)C(=O)NC [Comparative example, 2,2'-azobis (N-methyl-2-methyl propionamide), reference compound]	1.2 g	≤ 0.5 g	–	–	low solubility	low solubility	water-soluble	poor soluble	–	–	–	–	–	–
CC(C)(N=NC(C)(C)C(=O)NC1CCCCC1)C(=O)NC1CCCCC1 [Example 1, 2,2'-azobis (N-cyclohexyl-2-methyl propionamide)]	3.5 g	5.5 g	111.0 °C	1.72e-05 s⁻¹	–	–	–	–	8.7%	20.5%	30.8%	41.2%	62.5%	81.0%
CC(C)(N=NC(C)(C)C(N)=O)C(N)=O [2,2'-azobis (2-methylpropionamide)]	–	–	–	–	–	–	water-soluble	poor soluble	–	–	–	–	–	–

The next lines start with results.

Solubility in ethyl acetate [2]	Solubility in toluene [2]	temperature for 10-hour half life [3]	decomposition rate constant [5]	Solubility in ethyl acetate [2, 6]	Solubility in toluene [2, 6]	Structure (SMILES)	solubility in water [1]	solubility in an organic solvent [1]	Conversion ([4]; polymerization time 1 h)	Conversion ([4]; polymerization time 2 h)	Conversion ([4]; polymerization time 3 h)	Conversion ([4]; polymerization time 4 h)	Conversion ([4]; polymerization time 6 h)	Conversion ([4]; polymerization time 8 h)
easily soluble	easily soluble	110.8 °C	1.74e-05 s⁻¹	–	–	CCCNC(=O)C(C)(C)N=NC(C)(C)C(=O)NCCC [Example 6, 2,2'-azobis (N-propyl-2-methyl propionamide)]	–	–	9.0%	20.0%	31.2%	41.0%	62.4%	83.6%
easily soluble	easily soluble	110.6 °C	1.79e-05 s⁻¹	–	–	CCCCNC(=O)C(C)(C)N=NC(C)(C)C(=O)NCCCC [Example 3, 2,2'-azobis (N-butyl-2-methyl propionamide)]	–	–	9.2%	20.8%	30.8%	41.0%	61.2%	82.9%
11.0 g	5.0 g	111.2 °C	–	–	–	CC(C)NC(=O)C(C)(C)N=NC(C)(C)C(=O)NC(C)C [Example 4, 2,2'-azobis [N-(2-methylethyl)-2-methylpropionamide]]	–	–	–	–	–	–	–	–
easily soluble	easily soluble	111.6 °C	–	–	–	CCCCCCNC(=O)C(C)(C)N=NC(C)(C)C(=O)NCCCCCC [Example 5, 2,2'-azobis (N-hexyl-2-methyl propionamide)]	–	–	–	–	–	–	–	–
11.0 g	4.0 g	109.6 °C	–	–	–	CCNC(=O)C(C)(C)N=NC(C)(C)C(=O)NCC [Example 7, 2,2'-azobis (N-ethyl-2-methyl propionamide)]	–	–	–	–	–	–	–	–
14.0 g	8.0 g	112.0 °C	–	–	–	CC(C)CNC(=O)C(C)(C)N=NC(C)(C)C(=O)NCC(C)C [Example 2, 2,2'-azobis [N-(2-methylpropyl)-2-methylpropionamide]]	–	–	–	–	–	–	–	–
